Measured values from patent publication US20250288587A1, “Methods of Treating Fibrosis” (Athira Pharma, Inc., priority 2022, published 2025).

Legend:
[1] = test system: C57BL/6 mice, bleomycin-induced pulmonary fibrosis; assay: Bleomycin-induced pulmonary fibrosis in mice; type: in vivo; parameters: key to Collagen, improvement in BLM-induced alterations versus disease control / Alpha-Smooth Muscle Actin, improvement in BLM-induced alterations versus disease control / Body Weight, improvement in BLM-induced alterations versus disease control / Right Lung Weight, improvement in BLM-induced alterations versus disease control / Hydroxyproline, improvement in BLM-induced alterations versus disease control: + = >5-25% improvement vs disease control; ++ = >26-50% improvement vs disease control; +++ = >51-100% improvement v disease control; NS means not significant; conditions: for Body Weight, improvement in BLM-induced alterations versus disease control / Right Lung Weight, improvement in BLM-induced alterations versus disease control: days 3-21; for Collagen, improvement in BLM-induced alterations versus disease control / Hydroxyproline, improvement in BLM-induced alterations versus disease control / TGF-Beta, improvement in BLM-induced alterations versus disease control: right lung homogenate
Description: Lung fibrosis in C57BL/6 mice is induced by a single […] injection of the chemotherapy drug bleomycin. Mice are treated with vehicle or test compound. At termination (study day 28), one lung is weighed, with increased weight indicating more advanced fibrosis. Lung tissue is also homogenized for hydroxyproline, collagen, and TGF-β quantification. Lung tissue is also formalin-fixed and further processed for H&E, collagen morphometry, Ashcroft's score, and both α-SMA and TUNEL expression analyses. Plasma is analyzed by multiplex bead array for MMP-2, MMP-9, IL-1β, IL-6, IL-12, and TNF-α expression.
The experimental design described in Example B1 with the following changes was used to assess the ability of Compound 1a to reduce pulmonary fibrosis. Briefly, Male C57BL/6 mice (Envigo) […] were used. The mice were 3.5-4 months old and ˜24-30 g by weight. On day −1 animals were randomized based on body weight and the animals were assigned with a permanent number by ear notching. Cages were identified by cage cards indicating the study code, group number, sex, dose, cage number, number of animals and animal number details.
On day 0, all animals (except the sham control animals) were administered bleomycin (0.03 U in 50 μl normal saline) intratracheally (i.t.) under Ketamine+Xylazine anesthesia. The sham control animals were dosed with 50 μl of normal saline intratracheally. Pirfenidone was used as a positive control; this compound is known to downregulate growth factors and procollagens to reduce fibrosis and is an approved drug for the treatment of idiopathic pulmonary fibrosis.
Vehicle, pirfenidone and test Compound 1a dosing was initiated from day 3 to day 21 as described in the following Table 2. On day 21 whole blood was collected 1-hour post-dose into EDTA and then processed to plasma. Right lungs were then collected, weighed, snap frozen and later homogenized for biochemical analysis. Hydroxyproline, collagen and TGF-Beta levels were measured in the right lung homogenates.

[2] = test system: BALB/c mice, CCl4 mouse model of liver fibrosis; assay: CCl4-induced liver fibrosis, plasma AST; type: in vivo; conditions: for AST in plasma, improvement compared to disease control: from study day 21, termination day 43
Description: Liver fibrosis in BALB/c mice was induced by biweekly intraperitoneal injections of carbon tetrachloride (CCl4) from study day 0 to 43. Mice were treated with vehicle, Compound 1a, or positive control, SB535334, beginning at study day 21. At termination (study day 43), plasma was tested for liver function via levels of aspartate aminotransferase (AST).
AST can be used as a marker of liver damage, because increased levels are released in the blood stream in chronic liver disease.

[3] = test system: THP-1-differentiated macrophages; assay: Pro-inflammatory cytokine expression in LPS-challenged THP-1-differentiated macrophages; type: cell-based, human; parameters: key to IL-6, significant reduction in culture supernatant vs LPS treatment / TNF-α, significant reduction in culture supernatant vs LPS treatment / IL-1β, significant reduction in culture supernatant vs LPS treatment: “NS” indicates a non-significant reduction in the indicated cytokine; “+” indicates a p value <0.05 in Tukey post test; “++” indicates a p value <0.01 in Tukey post test; conditions: for IL-1β, significant reduction in culture supernatant vs LPS treatment / IL-6, significant reduction in culture supernatant vs LPS treatment / TNF-α, significant reduction in culture supernatant vs LPS treatment: 20 min pre-treatment, 24 hrs LPS; for expression of IL-1β and TNF-α / expression of IL-6: at at least one tested dose
Description: Differentiation with PMA causes THP-1 monocyte cells to acquire functional and morphological resemblance to macrophages. LPS interacts with THP-1 differentiated macrophage through the toll-like receptor 4, triggering the inflammatory response and stimulating pro-inflammatory cytokine release and eventually leading to cellular death. Compounds were tested to determine their anti-inflammatory effects on LPS-challenged macrophage cultures. THP-1-differentiated macrophages were treated with test compounds for 20 minutes, followed by 24 hrs of LPS challenge. Culture supernatants were then collected to analyzed for the presence of pro-inflammatory cytokines: […], interleukin 6 (IL-6) and tumor necrosis factor α (TNF-α).
Cytokine quantification in cell culture supernatants was accomplished by HTRF kits to assess levels of IL-1β (Human IL-1β kit, #62HIL1BPEG, Cisbio) and IL-6 (Human IL-6 kit, 62HIL06PET, Cisbio), and by ELISA to determine the levels of TNF-α (Human TNF-α ELISA kit, KHC3011, ThermoFisher).
Data analysis was performed via 1-way ANOVA with Tukey post-test compared to LPS treatment cultures using Prism statistical software (GraphPad). Tabular data indicates significance of reduction in culture supernatants for the indicated analyte at the indicated doses.

[4] = test system: pulmonary LPS-stimulated rats; assay: Immune cell infiltration in BALF, LPS-induced acute pulmonary inflammation; type: in vivo; conditions: 0.0075 mg/kg IV, 24 h and 0.5 h before LPS; BALF 4 h post LPS
CFA-stimulated rats = assay: CFA inflammatory pain model, thermal hyperalgesia (Hargreaves method); type: in vivo; conditions: Day 5, 1 hour pre-dosing; data not shown
[5] = dose 0.2 mg/kg PO daily, day 21
[6] = dose 0.8 mg/kg PO daily, day 21

Structure (SMILES): CCC(C)CN1CC2N(C(=O)c3ccc(C(F)(F)F)cc3)CCC(=O)N2[C@@H](C)C1=O (stereo partly drawn) [Compound 1a]
- body weight loss compared to the other treatment groups ([1]; 0.8 mg/k): slightly greater weight loss
- collagen in right lung homogenate compared with pirfenidone ([1]; 2 mg/kg): about the same levels of collagen
- collagen concentration in right lung homogenates ([1]; 8 mg/kg): reduced compared to the pirfenidone positive control
- hydroxyproline concentration in right lung homogenates at termination ([1]; 8 mg/kg and 2 mg/kg, also less than pirfenidone-treated animals): lower concentrations of hydroxyproline
- weight of whole right lungs at termination (day 21) ([1]; 8 mg/kg and 2 mg/kg, versus pirfenidone-treated animals): less than the positive control
- alpha-smooth muscle actin expression ([1]; 8 mg/kg, day 21): significantly reduced expression of this marker
- bleomycin-induced increases in TGF-β in right lung homogenates ([1]; all doses, day 21): significantly protected against bleomycin-induced increases in TGF-β
- protection against bleomycin-induced body weight loss ([1]; all treatment groups, over the study period): did not protect against body weight loss
- Body Weight, improvement in BLM-induced alterations versus disease control ([1]; dose 0.2 mg/kg PO daily): NS
- Right Lung Weight, improvement in BLM-induced alterations versus disease control [1, 5]: NS
- Alpha-Smooth Muscle Actin, improvement in BLM-induced alterations versus disease control [1, 5]: + (+ = >5-25% improvement vs disease control)
- Collagen, improvement in BLM-induced alterations versus disease control [1, 5]: NS
- Hydroxyproline, improvement in BLM-induced alterations versus disease control [1, 5]: NS
- TGF-Beta, improvement in BLM-induced alterations versus disease control [1, 5]: +++ (+++ = >51-100% improvement v disease control)
- Body Weight, improvement in BLM-induced alterations versus disease control ([1]; dose 0.8 mg/kg PO daily): NS
- Right Lung Weight, improvement in BLM-induced alterations versus disease control [1, 6]: + (+ = >5-25% improvement vs disease control)
- Alpha-Smooth Muscle Actin, improvement in BLM-induced alterations versus disease control [1, 6]: NS
- Collagen, improvement in BLM-induced alterations versus disease control [1, 6]: + (+ = >5-25% improvement vs disease control)
- Hydroxyproline, improvement in BLM-induced alterations versus disease control [1, 6]: NS
- TGF-Beta, improvement in BLM-induced alterations versus disease control [1, 6]: +++ (+++ = >51-100% improvement v disease control)
- Body Weight, improvement in BLM-induced alterations versus disease control ([1]; dose 2 mg/kg PO daily): NS
- Right Lung Weight, improvement in BLM-induced alterations versus disease control ([1]; dose 2 mg/kg PO daily, day 21): + (+ = >5-25% improvement vs disease control)
- Alpha-Smooth Muscle Actin, improvement in BLM-induced alterations versus disease control ([1]; dose 2 mg/kg PO daily, day 21): + (+ = >5-25% improvement vs disease control)
- Collagen, improvement in BLM-induced alterations versus disease control ([1]; dose 2 mg/kg PO daily, day 21): ++ (++ = >26-50% improvement vs disease control)
- Hydroxyproline, improvement in BLM-induced alterations versus disease control ([1]; dose 2 mg/kg PO daily, day 21): ++ (++ = >26-50% improvement vs disease control)
- TGF-Beta, improvement in BLM-induced alterations versus disease control ([1]; dose 2 mg/kg PO daily, day 21): +++ (+++ = >51-100% improvement v disease control)
- Body Weight, improvement in BLM-induced alterations versus disease control ([1]; dose 8 mg/kg PO daily): NS
- Right Lung Weight, improvement in BLM-induced alterations versus disease control ([1]; dose 8 mg/kg PO daily, day 21): ++ (++ = >26-50% improvement vs disease control)
- Alpha-Smooth Muscle Actin, improvement in BLM-induced alterations versus disease control ([1]; dose 8 mg/kg PO daily, day 21): ++ (++ = >26-50% improvement vs disease control)
- Collagen, improvement in BLM-induced alterations versus disease control ([1]; dose 8 mg/kg PO daily, day 21): +++ (+++ = >51-100% improvement v disease control)
- Hydroxyproline, improvement in BLM-induced alterations versus disease control ([1]; dose 8 mg/kg PO daily, day 21): + (+ = >5-25% improvement vs disease control)
- TGF-Beta, improvement in BLM-induced alterations versus disease control ([1]; dose 8 mg/kg PO daily, day 21): +++ (+++ = >51-100% improvement v disease control)
- alpha-smooth muscle actin morphometory ([1]; other doses of Compound 1a, pirfenidone doses, day 21): insignificant decreases
- AST levels in plasma compared to CCl4-treated mice receiving vehicle ([2]; 0.5 mg/kg, 8 mg/kg, and 16 mg/kg): modest but non-significant decreases
- AST in plasma, improvement compared to disease control ([2]; Dose 0.5 (mg/kg)): ++ (++ = >26-50% improvement compared to disease control)
- AST in plasma, improvement compared to disease control ([2]; Dose 2 (mg/kg)): − (− = change of <5% compared to disease control)
- AST in plasma, improvement compared to disease control ([2]; Dose 8 (mg/kg)): ++ (++ = >26-50% improvement compared to disease control)
- AST in plasma, improvement compared to disease control ([2]; Dose 16 (mg/kg)): ++ (++ = >26-50% improvement compared to disease control)
- IL-1β, significant reduction in culture supernatant vs LPS treatment ([3]; 0.1 nM): ++ (“++” indicates a p value <0.01 in Tukey post test)
- IL-6, significant reduction in culture supernatant vs LPS treatment ([3]; 0.1 nM): NS
- TNF-α, significant reduction in culture supernatant vs LPS treatment ([3]; 0.1 nM): ++ (“++” indicates a p value <0.01 in Tukey post test)
- IL-1β, significant reduction in culture supernatant vs LPS treatment ([3]; 10 nM): ++ (“++” indicates a p value <0.01 in Tukey post test)
- IL-6, significant reduction in culture supernatant vs LPS treatment ([3]; 10 nM): ++ (“++” indicates a p value <0.01 in Tukey post test)
- TNF-α, significant reduction in culture supernatant vs LPS treatment ([3]; 10 nM): ++ (“++” indicates a p value <0.01 in Tukey post test)
- IL-1β, significant reduction in culture supernatant vs LPS treatment ([3]; 1000 nM): ++ (“++” indicates a p value <0.01 in Tukey post test)
- IL-6, significant reduction in culture supernatant vs LPS treatment ([3]; 1000 nM): + (“+” indicates a p value <0.05 in Tukey post test)
- TNF-α, significant reduction in culture supernatant vs LPS treatment ([3]; 1000 nM): ++ (“++” indicates a p value <0.01 in Tukey post test)
- expression of IL-1β and TNF-α [3]: significantly reduced
- expression of IL-6 [3]: significantly reduced
- Neutrophils in BALF, reduction in cell count vs disease control [4]: ++ (++ = >25% reduction in cell count vs disease control)
- Total Leukocytes in BALF, reduction in cell count vs disease control [4]: ++ (++ = >25% reduction in cell count vs disease control)
- PWL (paw withdrawal latency) (CFA-stimulated rats): statistically significant increase

Structure (SMILES): CCC(C)CN1CC2N(Cc3ccc(C(F)(F)F)cc3)CCC(=O)N2[C@@H](C)C1=O (stereo partly drawn) [Compound 5a]
- IL-1β, significant reduction in culture supernatant vs LPS treatment ([3]; 0.1 nM): ++ (“++” indicates a p value <0.01 in Tukey post test)
- IL-6, significant reduction in culture supernatant vs LPS treatment ([3]; 0.1 nM): NS
- TNF-α, significant reduction in culture supernatant vs LPS treatment ([3]; 0.1 nM): NS
- IL-1β, significant reduction in culture supernatant vs LPS treatment ([3]; 10 nM): ++ (“++” indicates a p value <0.01 in Tukey post test)
- IL-6, significant reduction in culture supernatant vs LPS treatment ([3]; 10 nM): + (“+” indicates a p value <0.05 in Tukey post test)
- TNF-α, significant reduction in culture supernatant vs LPS treatment ([3]; 10 nM): NS
- IL-1β, significant reduction in culture supernatant vs LPS treatment ([3]; 1000 nM): ++ (“++” indicates a p value <0.01 in Tukey post test)
- IL-6, significant reduction in culture supernatant vs LPS treatment ([3]; 1000 nM): ++ (“++” indicates a p value <0.01 in Tukey post test)
- TNF-α, significant reduction in culture supernatant vs LPS treatment ([3]; 1000 nM): + (“+” indicates a p value <0.05 in Tukey post test)
- expression of IL-1β and TNF-α [3]: significantly reduced
- expression of IL-6 [3]: significantly reduced
